The supplement of paper PMC10307832

Assays:
Test in all cases: relative viability (nuclei count vs DMSO), 5 days (fraction); higher = more cells survive
[1] = compound: CN(C)C(=N)NC(=N)N [Metformin] + CC(=O)Nc1cccc(-n2c(=O)n(C3CC3)c(=O)c3c(Nc4ccc(I)cc4F)n(C)c(=O)c(C)c32)c1 [Trametinib] (partner 0.02 µM)
How it was run: (§1)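 Cells from lung cancer lines were seeded into 1536-well plates and, one day later, dosed by pin tool. Treatments were either a single drug or a fixed dose of an anchor drug with five library-drug doses (not always all listed) in √10 steps. After 5 days, nuclei were stained in a one-step fixation (final 0.05% Triton X-100, 1% formaldehyde, 1 ug/ml Hoechst) and counted on 4× images, and relative viability is the treated-to-vehicle nuclei ratio, as the median of duplicate plates.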

[2] = compound: CN(C)C(=N)NC(=N)N [Metformin] + CS(=O)(=O)N1CCN(Cc2cc3nc(-c4cccc5[nH]ncc45)nc(N4CCOCC4)c3s2)CC1 [Pictilisib] (partner 1 µM)
How it was run: as §1

[3] = compound: CN(C)C(=N)NC(=N)N [Metformin] + NC(=O)Nc1cc(-c2cccc(F)c2)sc1C(=O)N[C@H]1CCCNC1 [AZD7762] (partner 0.2 µM)
How it was run: as §1

[4] = compound: N#CC1(c2ccc(NC(=O)c3cccnc3NCc3ccncc3)cc2)CCCC1 [Apatinib] + N=C(N)NC(=N)NCCc1ccccc1 [Phenformin] (partner 250 µM)
How it was run: as §1

| Cell Line | relative viability ([1]; first compound 10 µM) | relative viability ([1]; first compound 31.62 µM) | relative viability ([1]; first compound 100 µM) | relative viability ([1]; first compound 316.23 µM) | relative viability ([1]; first compound 1000 µM) | relative viability ([2]; first compound 10 µM) | relative viability ([2]; first compound 31.62 µM) | relative viability ([2]; first compound 100 µM) | relative viability ([2]; first compound 316.23 µM) | relative viability ([2]; first compound 1000 µM) | relative viability ([3]; first compound 10 µM) | relative viability ([3]; first compound 31.62 µM) | relative viability ([3]; first compound 100 µM) | relative viability ([3]; first compound 316.23 µM) | relative viability ([3]; first compound 1000 µM) | relative viability ([4]; first compound 0.08 µM) | relative viability ([4]; first compound 0.253 µM) | relative viability ([4]; first compound 0.8 µM) | relative viability ([4]; first compound 2.53 µM) | relative viability ([4]; first compound 8 µM) |
| --- | --- | --- | --- | --- | --- | --- | --- | --- | --- | --- | --- | --- | --- | --- | --- | --- | --- | --- | --- | --- |
| NCI-H650 | 1.09 | 1 | 1.06 | 0.817 | 0.94 | 0.96 | 1.01 | 1.12 | 1.06 | 0.978 | 1.03 | 1.22 | 0.896 | 0.835 | 1.18 | 0.405 | 0.413 | 0.447 | 0.385 | 0.374 |
| NCI-H1915 | – | 0.302 | 0.302 | 0.289 | – | – | 1.08 | 0.95 | 0.919 | 0.933 | – | 0.713 | 0.686 | 0.669 | 0.707 | 0.377 | 0.353 | 0.334 | 0.354 | 0.326 |
| NCI-H3122 | 0.163 | 0.21 | 0.258 | 0.188 | 0.209 | 0.488 | 0.588 | 0.459 | 0.437 | 0.5 | 0.867 | 0.881 | 0.984 | 0.845 | 0.809 | 0.351 | 0.361 | 0.319 | 0.271 | 0.298 |
| LOU-NH91 | 0.732 | 0.76 | 0.786 | 0.766 | 0.761 | 0.555 | 0.469 | 0.53 | 0.496 | 0.549 | 0.743 | 0.668 | 0.716 | 0.681 | 0.718 | 0.651 | 0.73 | 0.631 | 0.659 | 0.665 |
| NCI-H2087 | 0.232 | 0.222 | 0.18 | 0.152 | 0.254 | 0.909 | 1.01 | 0.772 | 0.782 | 0.957 | 1.3 | 1.21 | 1.12 | 1.11 | 1.39 | 0.499 | 0.46 | 0.424 | 0.339 | 0.374 |
| LK-2 | 0.829 | 1.23 | 1.54 | 1.08 | 1.26 | 0.707 | 0.757 | 0.811 | 0.61 | 0.769 | 0.359 | 0.454 | 0.512 | 0.361 | 0.548 | 0.485 | 0.51 | 0.467 | 0.287 | 0.258 |
| NCI-H2347 | 0.291 | 0.289 | 0.26 | 0.265 | 0.258 | 0.665 | 0.834 | 1.02 | 0.492 | 0.659 | 0.662 | 0.892 | 0.856 | 0.771 | 0.862 | 0.476 | 0.307 | 0.443 | 0.206 | 0.465 |
| NCI-H1437 | 0.638 | 0.703 | 0.631 | 0.701 | 0.627 | 0.671 | 0.729 | 0.406 | 0.629 | 0.757 | 1.17 | 1.1 | 1.07 | 1.09 | 0.551 | 0.354 | 0.283 | 0.278 | 0.252 | 0.251 |
